In the NIST ThermoML archive (doi:10.1016/j.jct.2016.12.032):
Numbers after ± are expanded uncertainties.

Assay: xn = mol fraction of the nth substance listed
Conditions: 100 kPa, Liquid; for viscosity: Capillary tube (Ostwald / Ubbelohde) method; for mass density: Vibrating tube method

CC1CCC(=O)O1 (centres undefined) [γ-valerolactone] + CCCC[n+]1ccn(C)c1.O=S(=O)([N-]S(=O)(=O)C(F)(F)F)C(F)(F)F
Conditions | mass density, 293.15 K [kg/m3] | mass density, 298.15 K [kg/m3] | mass density, 303.15 K [kg/m3] | viscosity, 293.15 K [mPa·s] | viscosity, 298.15 K [mPa·s] | viscosity, 303.15 K [mPa·s] | viscosity, 308.15 K [mPa·s]
x2 = 0 | 1053.99 ± 2 | 1049.28 ± 2 | 1044.58 ± 2 | 1.99 ± 0.08 | 1.82 ± 0.07 | 1.67 ± 0.07 | 1.53 ± 0.06
x2 = 0.0505 | 1108.43 ± 2.5 | 1103.66 ± 2.5 | 1098.86 ± 2.5 | 2.51 ± 0.1 | 2.21 ± 0.09 | 1.98 ± 0.08 | 1.81 ± 0.07
x2 = 0.1001 | 1153.24 ± 2.3 | 1148.42 ± 2.3 | 1143.54 ± 2.3 | 3.21 ± 0.13 | 2.76 ± 0.11 | 2.45 ± 0.1 | 2.22 ± 0.09
x2 = 0.1492 | 1191.45 ± 2.2 | 1186.58 ± 2.2 | 1181.67 ± 2.2 | 4.28 ± 0.18 | 3.57 ± 0.15 | 3.13 ± 0.13 | 2.79 ± 0.12
x2 = 0.1998 | 1223.25 ± 2.1 | 1218.36 ± 2.1 | 1213.42 ± 2.1 | 5.6 ± 0.23 | 4.71 ± 0.19 | 4.03 ± 0.17 | 3.53 ± 0.15
x2 = 0.3008 | 1274.04 ± 2.1 | 1269.12 ± 2.1 | 1264.12 ± 2.1 | 8.84 ± 0.36 | 7.2 ± 0.3 | 6.01 ± 0.25 | 5.16 ± 0.21
x2 = 0.4031 | 1317.29 ± 2.1 | 1312.35 ± 2.1 | 1307.33 ± 2.1 | 13.88 ± 0.57 | 11.11 ± 0.45 | 9.11 ± 0.37 | 7.78 ± 0.32
x2 = 0.5048 | 1347.03 ± 2.1 | 1342.1 ± 2.1 | 1337.07 ± 2 | 19.18 ± 0.78 | 15.34 ± 0.63 | 12.52 ± 0.51 | 10.6 ± 0.43
x2 = 0.6031 | 1373.16 ± 2 | 1368.22 ± 2 | 1363.16 ± 2 | 25.88 ± 1.1 | 20.69 ± 0.84 | 17.18 ± 0.7 | 14.12 ± 0.58
x2 = 0.6973 | 1393.96 ± 2 | 1389.01 ± 2 | 1383.94 ± 2 | 33.12 ± 1.4 | 26.55 ± 1.1 | 21.62 ± 0.88 | 17.97 ± 0.73
x2 = 0.7994 | 1413.3 ± 2 | 1408.36 ± 2 | 1403.29 ± 2 | 42.31 ± 1.7 | 34.16 ± 1.4 | 27.85 ± 1.1 | 22.82 ± 0.93
x2 = 0.8711 | 1426.6 ± 2 | 1421.67 ± 2 | 1416.59 ± 2 | 50.45 ± 2 | 40.79 ± 1.7 | 33.15 ± 1.4 | 27.09 ± 1.1
